72 compounds from PubChem BioAssay AID179 (DTP/NCI, 2004) can be followed below.

This test relates to CEM cells HIV-1 protection, formazan growth assay. In words: NCI AIDS Antiviral Assay. The settings on record: for IC50: measured here: growth of uninfected CEM cells. The gist of the method: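 Soluble formazan readout of cell growth; CEM cells ± HIV-1; 5 drug concs. ≥50% protection → retest; ≥50% again = moderately active; reproducible 100% = confirmed active.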

Several values for one entry are separate records, joined by “and”; a condition that tells them apart may be missing. Equal entries are not always repeated. Activity calls are given as the source filed them.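 How the source made its calls: active means compounds giving half or more protection of infected cells from virus-caused growth loss, again on retest; inactive means the rest.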

For the compound `Cc1ccc2ccc3ccc(C)nc3c2n1.Cc1ccc2ccc3ccc(C)nc3c2n1.O=C1OC(C(O)C[O-])C(O)=C1O.[Cu+]`, the EC50 is > 12.6 µM and the 50% inhibitory concentration (IC50) worked out at 0.0871 µM.

As to `O=C1NC(=O)C2(c3ccccc3)CCN1C2=O` (stereo unspecified), the EC50 is > 200 µM and the IC50 is > 200 µM.

Consider `COC(=O)c1ccccc1CC1Cc2cc3c(cc2C1)CCC3`, for which the EC50 was > 200 µM and the IC50 turned out to be 38 µM.

Regarding `[O-][n+]1onc2c1CCC(=N\O)/C2=N/Nc1ccccc1`, the EC50 was > 200 µM and the IC50 came to 155 µM.

As to `CSc1nc2c(nc(N)n2C2OC(CO)C(O)C(O)C2O)c(=O)[nH]1` (stereo unspecified), the outcome was inactive.

Turning to `O=C(c1ccccc1)n1[nH]c(=O)n(-c2ccc(Cl)cc2)c1=O`, the EC50 was > 200 µM and the concentration for half-maximal inhibition (IC50) was > 200 µM.

`COC1OC(CO)C(O)C2NCSC12` (stereo unspecified): the EC50 was 33.9 µM and the IC50 is > 200 µM.

With `CC(=NC1C2CC3CC(C2)CC1C3)c1ccc(N=NC2C(=O)NN=C2C)cc1` (stereo unspecified), the EC50 is > 10 µM and the IC50 is > 10 µM.

In the case of `O=C1NC(N/N=C\C(O)C(O)C(O)CO)=N/C1=C/c1ccccc1` (stereo unspecified), the EC50 was > 200 µM and 38 µM; the half-maximal inhibitory concentration (IC50) is 89.1 µM and 105 µM.

As for `c1ccc(SCCC(Sc2ccccc2)Sc2ccccc2)cc1`, the EC50 is > 200 µM and the 50% inhibitory concentration (IC50) amounted to 93.3 µM.

`CC(=O)C1(O)CC2(c3ccccc3)C(=O)C1(c1ccccc1)C(c1ccccc1)=C2c1ccccc1` (stereo unspecified): the result was inactive.

In the case of `CCCCCCCC[N+]12CN3CN(CN(C3)C1)C2`, the EC50 is > 759 µM and the IC50 worked out at 39.8 µM.

On to `Nc1ccc(S(=O)(=O)c2ccc(N)cc2)cc1`, for which the result was inactive.

Regarding `CC(CO)NNC(C)CO` (stereo unspecified), the EC50 is > 200 µM and the IC50 was > 200 µM.

Take `Fc1ccccc1CN1COc2c(cc(Cl)c3cccnc23)C1`: the EC50 is > 200 µM and the half-inhibitory concentration (IC50) came out at 3.09 µM.

Regarding `CCN(CC)S(=O)(=O)c1ccc(Nc2nc(Cl)nc(Cl)n2)cc1`, the EC50 is > 200 µM and the IC50 was > 200 µM.

In the case of `NC(CCC(=O)O)(CCC(=O)O)CCC(=O)O`, the outcome was inactive.

For the compound `CN(/N=C/c1ccnc2ccccc12)c1c([N+](=O)[O-])cc([N+](=O)[O-])cc1[N+](=O)[O-]`, the EC50 was > 47.9 µM and the half-maximal inhibitory concentration (IC50) was found to be 8.71 µM.

As to `COC(=O)C1=C(c2ccccc2)ON2C(C)(C)COC12C` (stereo unspecified), the EC50 was > 200 µM and the IC50 was > 200 µM.

Take `O=c1/c(=C/c2ccco2)sc2nc3ccccc3n12`: the EC50 is > 3.89 µM and the 50% inhibitory concentration (IC50) was > 3.89 µM.

Regarding `Cc1cc2c(c3c1c1ccccc1n3C)C(=O)C=CC2=O`, the EC50 is > 36.3 µM and the IC50 came out at 3.72 µM.

For the compound `CC1=NC(=Cc2ccc(O)cc2)C(=O)N1n1c(-c2ccccc2)nc2ccccc2c1=O`, the EC50 is > 200 µM and the half-maximal inhibitory concentration (IC50) is 21.9 µM.

As to `CNc1ccc(Cl)cc1C(=O)N1CCC[C@H]1CO`, the EC50 was > 200 µM and the half-maximal inhibitory concentration (IC50) is > 200 µM.

For `O=C(Nc1ccccc1-c1ccccc1)c1ccccc1`, the EC50 is > 200 µM and the IC50 was 91.2 µM.

`CCC12OC(=O)C34CC(C(=O)N(CCc5c3[nH]c3ccccc53)C41)C2I` (stereo unspecified): the result was inactive.

For the compound `CC(=O)NC(C)(C)C1CCC(C)=C(c2ccccc2)C1` (stereo unspecified), the EC50 was > 95.5 µM and the half-inhibitory concentration (IC50) was 47.9 µM.

As to `CCOCC(Br)C(OCC)OCC` (stereo unspecified), the outcome was inactive.

Consider `Cc1nc2ccccc2c(=O)n1CC(=O)O`, for which the outcome was inactive.

In the case of `CC(=O)CCCCCCCCCCCC[C@@H]1CC[C@H](C)[C@H](O)N1`, the EC50 was > 21.9 µM and the 50% inhibitory concentration (IC50) is > 21.9 µM.

As to `COC(=O)Cc1c(C2C(CC(=O)OC)c3ccccc3N2C2OC(CO)C(O)C(O)C2O)[nH]c2ccccc12` (stereo unspecified), the EC50 is 112 µM and the concentration for half-maximal inhibition (IC50) was found to be 151 µM.

Take `Cc1ccc(Cc2cc(N3CCN(c4cccc(Cl)c4)CC3)nnc2C)cc1`: the EC50 was > 100 µM and the 50% inhibitory concentration (IC50) was 16.6 µM.

In the case of `O=C(O)/C=C\C(=O)NCCCNC(=O)/C=C\C(=O)O`, the EC50 is > 933 µM and the IC50 was > 933 µM.

In the case of `COC1OC(OCCC#N)C(OCCC#N)C(OCCC#N)C1OCCC#N` (stereo unspecified), the EC50 was > 200 µM and the concentration for half-maximal inhibition (IC50) was > 200 µM.

With `C[Si](C)(C)/C=C/CCNC(C#N)c1ccccc1` (stereo unspecified), the EC50 is > 20.4 µM and the IC50 was > 20.4 µM.

As for `CCOC(=O)c1csc(-c2nc(CCNC(=O)c3ccccc3)sc2Cl)n1`, the EC50 is > 85.1 µM and the 50% inhibitory concentration (IC50) was found to be 44.7 µM.

In the case of `Cc1ccc(C(=O)CC2=Nc3nnc(CCCCCCCc4nnc5n4C(=O)C(CC(=O)c4ccc(C)cc4)=N5)n3C2=O)cc1`, the EC50 is > 2.4 µM and the IC50 was > 2.4 µM.

Take `NNC1=N/C(=C\c2ccco2)C(Cl)=N1`: the EC50 was > 200 µM and the IC50 was 38 µM.

`O=c1[nH]c(=O)n(COCCOCc2ccccc2)cc1Nc1ccccc1`: the EC50 was > 200 µM and the IC50 was found to be 56.2 µM.

Turning to `CCCc1c(C(=O)OCC)[nH]c(-c2ccc(-c3[nH]c(C(=O)OCC)c(CCC)c3C(=O)OCC)s2)c1C(=O)OCC`, the EC50 was > 4.68 µM and the IC50 is > 4.68 µM.

As to `CCc1n[nH]c(=O)n1-c1ccncc1`, the EC50 is > 200 µM and the half-maximal inhibitory concentration (IC50) was > 200 µM.

`CCOP(=O)(OCC)C(C)(CC)NC(=O)C(C(F)(F)F)C(F)(F)F` (stereo unspecified): the EC50 was > 200 µM, the result was inactive and the IC50 is 105 µM.

On to `CC1=NN(C(=O)CC(=O)NC(=O)/C=C\c2ccccc2)C(=O)C1N=Nc1ccc([N+](=O)[O-])cc1` (stereo unspecified), for which the result was inactive.

On to `CC1=C(C)C(=O)C2=C(OCCCO2)C1=O`, for which the EC50 was > 1200 µM and the half-inhibitory concentration (IC50) was determined as 3.39 µM.

Turning to `O=c1[nH]nc(Cc2ccc([N+](=O)[O-])cc2)n1CCO`, the EC50 was > 200 µM and the 50% inhibitory concentration (IC50) is > 200 µM.

As to `CN(C)CCn1c2ccccc2c2nc3cc4ccccc4cc3nc21`, the EC50 is > 50.1 µM and the 50% inhibitory concentration (IC50) stood at 0.363 µM.

For `COc1ccccc1N=Nc1c(S(=O)(=O)O)cc2cc(NC(=O)Nc3ccc4c(O)c(N=Nc5c(N)ccc6cc(S(=O)(=O)O)ccc56)c(S(=O)(=O)O)cc4c3)ccc2c1O`, the outcome was active.

`N/C(=N/N=C/c1ccc2ccccc2n1)NO`: the result was inactive.

Regarding `O=C(CCC/C(CC(=O)c1ccc(Cl)cc1)=N\NC(=O)c1cc2ccccc2cc1O)Nc1cccc([N+](=O)[O-])c1`, the outcome was inactive.

Take `Cc1ccc(C)c(N=Nc2c(S(=O)(=O)O)cc3cc(NC(=O)Nc4ccc5c(O)c(N=Nc6ccc7cc(S(=O)(=O)O)ccc7c6)c(S(=O)(=O)O)cc5c4)ccc3c2O)c1`: the 50% effective concentration (EC50) came out at 16.2 µM and the 50% inhibitory concentration (IC50) was > 100 µM.

Consider `Cc1c2ccccc2c(=O)n2c(-c3ccccn3)cccc12`, for which the EC50 is > 200 µM and the half-inhibitory concentration (IC50) came out at 120 µM.

Regarding `Nc1ccc(C(c2ccccc2)(c2ccccc2)c2ccccc2)cc1`, the outcome was inactive.

On to `CN(C)C(=O)CC(C(=O)O)c1c[nH]c2ccccc12` (stereo unspecified), for which the EC50 was > 309 µM and the IC50 was > 309 µM.

Take `O=C(CCCN1CCC(O)(c2cccc(C(F)(F)F)c2)CC1)c1ccc(F)cc1`: the EC50 is > 302 µM and the IC50 was found to be 53.7 µM.

Turning to `COc1ccc(C2CC(=O)c3c(cc(OC)c(OC)c3OC)O2)cc1` (stereo unspecified), the EC50 is > 200 µM and the IC50 worked out at 20.9 µM.

As for `COC(C/C(=C/CO[Si](C(C)C)(C(C)C)C(C)C)C(=O)Nc1ccccc1I)OC`, the EC50 is > 200 µM and the IC50 is 40.7 µM.

In the case of `O=c1c2ccccc2[nH]c(=S)n1-c1ccc(Br)cc1`, the EC50 was > 40.7 µM and the IC50 was > 40.7 µM.

In the case of `CN(C)c1nc(N)nc(Nc2ccc(Br)cc2)c1N=O`, the EC50 was > 200 µM and the IC50 worked out at 37.2 µM.

Consider `Cc1cc(S(=O)(=O)Nc2nc3cc(-c4ccc(Cl)cc4)sc3c(=O)n2N)c(S)cc1Cl`, for which the EC50 was > 200 µM and the half-inhibitory concentration (IC50) is 110 µM.

On to `CCOc1cnc([C@H]2CCC3[C@@H]4CC=C5C[C@@H](OC(C)=O)CC[C@]5(C)C4CC[C@@]32C)s1` (stereo partly specified), for which the EC50 is > 21.4 µM and the IC50 was > 21.4 µM.

Regarding `CC(=O)N1c2ccccc2C2=CC3C4C(=O)N(c5ccccc5)C(=O)C4C21C1C(=O)N(c2ccccc2)C(=O)C31` (stereo unspecified), the outcome was inactive.

On to `CN(C)Cc1cc(N=Nc2c(Cl)cccc2Cl)ccc1O`, for which the EC50 was > 200 µM and the half-maximal inhibitory concentration (IC50) is 83.2 µM.

For the compound `CCc1n[nH]c(=O)n1/N=C/c1ccc(C)cc1`, the EC50 is > 200 µM and the half-maximal inhibitory concentration (IC50) was determined as 158 µM.

For the compound `Cc1cc2c(cc1C)[n+](=O)c(C(=O)C/C(=N/NC(=O)c1ccccc1O)C(=O)Nc1ccccc1C(C)C)c(C)n2[O-]`, the EC50 is > 229 µM and the IC50 was found to be 75.9 µM.

For the compound `COc1ccc(C(=O)CC2=Nc3nnc(CCCCCCCc4nnc5n4C(=O)C(CC(=O)c4ccc(OC)cc4)=N5)n3C2=O)cc1`, the EC50 was > 4.27 µM and the half-maximal inhibitory concentration (IC50) was > 4.27 µM.

Take `Cc1ccnc(NC(=S)Nc2ccc([N+](=O)[O-])cc2)c1`: the EC50 was > 200 µM and the IC50 was > 200 µM.

For the compound `CN(/N=C\c1ccc2ccccc2c1)C1=NCCN1`, the EC50 was > 200 µM and the concentration for half-maximal inhibition (IC50) is 22.9 µM.

For the compound `O=[N+]([O-])C(=C(Sc1ccccc1)Sc1ccccc1)C(Cl)=C(Cl)Cl`, the outcome was inactive.

On to `O=C(Nc1ccc(OCC2=NCCN2)cc1)c1ccc(C(=O)Nc2ccc(OCC3=NCCN3)cc2)cc1`, for which the EC50 is > 200 µM and the IC50 was > 200 µM.

Take `CCOC(=O)c1nc(SC)sc1NC(=O)c1ccccc1N`: the EC50 was > 200 µM and the IC50 was > 200 µM.

As for `Cc1nn(C(=O)c2ccc(Cl)cc2)c2c1C(c1ccc([N+](=O)[O-])cc1)SC(N)=N2` (stereo unspecified), the EC50 is > 200 µM and the IC50 came out at 97.7 µM.

As to `Oc1ccc(C(=C(Br)c2ccccc2)c2ccc(O)cc2)cc1`, the EC50 was > 200 µM and the half-maximal inhibitory concentration (IC50) worked out at 3.98 µM.

Turning to `Cc1cc(N=Nc2ccc(-c3ccc(N=Nc4ccc(O)c(C(=O)O)c4)cc3)cc2)c(C)cc1N`, the EC50 is > 100 µM and the IC50 came to 41.7 µM.

The term EC50 denotes the concentration giving half of the maximal effect. What is called IC50 is the concentration at which inhibition is half-maximal. Read a low IC50 as inhibition by little substance.
